From ChEMBL document CHEMBL3608278 (J Med Chem, 2015) come the findings set out here.

Usually IC50 stands for the concentration that inhibits the measured activity by half. A higher IC50 goes with weaker potency in that assay.

SMILES strings stand for the structures. Bounds are passed on as bounds.

Assay [1] addresses T1, Potassium voltage-gated channel subfamily A member 3 (Homo sapiens, UniProt P22001). The format is cell-based, CHO-K1.
Assay [2] addresses T1, Potassium voltage-gated channel subfamily A member 3. On the set-up: species or system Blood.
Assay [3] has the same target. The experiment in a line: cell-based. On the set-up: species or system Blood.

T1 sequence (P22001 whole entry): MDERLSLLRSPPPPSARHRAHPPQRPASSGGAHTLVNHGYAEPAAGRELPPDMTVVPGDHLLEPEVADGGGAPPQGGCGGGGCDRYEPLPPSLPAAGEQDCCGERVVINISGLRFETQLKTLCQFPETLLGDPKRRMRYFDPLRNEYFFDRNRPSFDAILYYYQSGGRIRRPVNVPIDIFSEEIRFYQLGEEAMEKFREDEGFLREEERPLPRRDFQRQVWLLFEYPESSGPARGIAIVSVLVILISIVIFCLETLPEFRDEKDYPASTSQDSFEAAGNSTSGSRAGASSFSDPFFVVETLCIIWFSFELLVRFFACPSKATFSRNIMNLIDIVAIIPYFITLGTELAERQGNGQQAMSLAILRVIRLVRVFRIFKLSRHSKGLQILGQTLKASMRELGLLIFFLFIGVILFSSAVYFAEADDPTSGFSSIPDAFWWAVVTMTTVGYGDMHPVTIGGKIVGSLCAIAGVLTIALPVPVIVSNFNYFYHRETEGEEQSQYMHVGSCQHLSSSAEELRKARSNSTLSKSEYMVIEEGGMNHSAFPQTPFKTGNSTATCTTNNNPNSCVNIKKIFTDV

Turning to `CC[C@H](C)[C@@H]1NC(=O)[C@@H](NC(=O)[C@H](CO)NC(=O)[C@@H](N)CCCNC(=N)N)CSSC[C@@H](C(=O)O)NC(=O)[C@H]([C@@H](C)O)NC(=O)CNC(=O)[C@@H]2CSSC[C@@H]3NC(=O)[C@H](CCC(N)=O)NC(=O)[C@H](Cc4ccccc4)NC(=O)[C@H](C)NC(=O)[C@H]([C@@H](C)O)NC(=O)[C@H](CSSC[C@H](NC(=O)[C@H](Cc4ccccc4)NC(=O)[C@H](CO)NC(=O)[C@H](CC(C)C)NC(=O)[C@H](CCCNC(=N)N)NC(=O)[C@H](Cc4ccc(O)cc4)NC(=O)[C@H](CCCCN)NC(=O)[C@H](CCSC)NC(=O)[C@H](CO)NC(=O)[C@H](Cc4cnc[nH]4)NC(=O)[C@H](CCCCN)NC3=O)C(=O)N[C@@H](CCCNC(=N)N)C(=O)N[C@@H](CCCCN)C(=O)N[C@@H]([C@@H](C)O)C(=O)N2)NC(=O)[C@H](CCCNC(=N)N)NC(=O)[C@H](CO)NC(=O)[C@H](CCCCN)NC(=O)[C@@H]2CCCN2C(=O)[C@H](CCCCN)NC(=O)[C@H]([C@@H](C)O)NC(=O)[C@H](CC(=O)O)NC1=O`, the results for the IC50 in assay [1], in assay [2] and in assay [3] were 0.561 nM, 13.5 nM and 4.67 nM, respectively.

With `CC[C@H](C)[C@@H]1NC(=O)[C@@H](NC(=O)[C@H](CO)NC(=O)[C@@H](N)CCCNC(=N)N)CSSC[C@@H](C(=O)O)NC(=O)[C@H]([C@@H](C)O)NC(=O)CNC(=O)[C@@H]2CSSC[C@@H]3NC(=O)[C@H](CCC(N)=O)NC(=O)[C@H](Cc4ccccc4)NC(=O)[C@H](C)NC(=O)[C@H]([C@@H](C)O)NC(=O)[C@H](CSSC[C@H](NC(=O)[C@H](Cc4ccccc4)NC(=O)[C@H](CO)NC(=O)[C@H](CC(C)C)NC(=O)[C@H](CCCNC(=N)N)NC(=O)[C@H](Cc4ccc(O)cc4)NC(=O)[C@H](CCCCN)NC(=O)[C@H](CCC(=O)O)NC(=O)[C@H](CO)NC(=O)[C@H](Cc4cnc[nH]4)NC(=O)[C@H](CCCCN)NC3=O)C(=O)N[C@@H](CCCNC(=N)N)C(=O)N[C@@H](CCCCN)C(=O)N[C@@H]([C@@H](C)O)C(=O)N2)NC(=O)[C@H](CCCNC(=N)N)NC(=O)[C@H](CO)NC(=O)[C@H](CCCCN)NC(=O)[C@@H]2CCCN2C(=O)[C@H]([C@@H](C)CC)NC(=O)[C@H]([C@@H](C)O)NC(=O)[C@H](CC(=O)O)NC1=O`, the IC50 in assay [1] was greater than 3.33 nM; in assay [2], 28.1 nM; in assay [3], 18.5 nM.

As to `CC[C@H](C)[C@@H]1NC(=O)[C@@H](NC(=O)[C@H](CO)NC(=O)[C@@H](N)CCCNC(=N)N)CSSC[C@@H](C(=O)O)NC(=O)[C@H]([C@@H](C)O)NC(=O)CNC(=O)[C@@H]2CSSC[C@@H]3NC(=O)[C@H](CCC(N)=O)NC(=O)[C@H](Cc4ccccc4)NC(=O)[C@H](C)NC(=O)[C@H]([C@@H](C)O)NC(=O)[C@H](CSSC[C@H](NC(=O)[C@H](Cc4ccccc4)NC(=O)[C@H](CO)NC(=O)[C@H](CC(C)C)NC(=O)[C@H](CCCNC(=N)N)NC(=O)[C@H](Cc4ccc(O)cc4)NC(=O)[C@H](CCCCN)NC(=O)[C@H](CCSC)NC(=O)[C@H](CO)NC(=O)[C@H](Cc4cnc[nH]4)NC(=O)[C@H](CCCCN)NC3=O)C(=O)N[C@@H](CCCNC(=N)N)C(=O)N[C@@H](CCCCN)C(=O)N[C@@H]([C@@H](C)O)C(=O)N2)NC(=O)[C@H](CCCNC(=N)N)NC(=O)[C@H](CO)NC(=O)[C@H](CCCCN)NC(=O)[C@@H]2CCCN2C(=O)[C@H]([C@@H](C)CC)NC(=O)[C@H]([C@@H](C)O)NC(=O)[C@H](CCCNC(=N)N)NC1=O`, the IC50 was greater than 3.33 nM in assay [1], 91.7 nM in assay [2] and 40.5 nM in assay [3].

For the compound `CC[C@H](C)[C@@H]1NC(=O)[C@@H](NC(=O)[C@H](CO)NC(=O)[C@@H](N)CCCNC(=N)N)CSSC[C@@H](C(=O)O)NC(=O)[C@H]([C@@H](C)O)NC(=O)CNC(=O)[C@@H]2CSSC[C@@H]3NC(=O)[C@H](CCC(N)=O)NC(=O)[C@H](Cc4ccccc4)NC(=O)[C@H](C)NC(=O)[C@H]([C@@H](C)O)NC(=O)[C@H](CSSC[C@H](NC(=O)[C@H](Cc4ccccc4)NC(=O)[C@H](CO)NC(=O)[C@H](CC(C)C)NC(=O)[C@H](CCCNC(=N)N)NC(=O)[C@H](Cc4ccc(O)cc4)NC(=O)[C@H](CCCCN)NC(=O)[C@H](CCSC)NC(=O)[C@H](CO)NC(=O)[C@H](Cc4cnc[nH]4)NC(=O)[C@H](CCCCN)NC3=O)C(=O)N[C@@H](CCCNC(=N)N)C(=O)N[C@@H](CCCCN)C(=O)N[C@@H]([C@@H](C)O)C(=O)N2)NC(=O)[C@H](CCCNC(=N)N)NC(=O)[C@H](CO)NC(=O)[C@H](CCCCN)NC(=O)[C@H](CCCNC(=N)N)NC(=O)[C@H]([C@@H](C)CC)NC(=O)[C@H]([C@@H](C)O)NC(=O)[C@H](CC(=O)O)NC1=O`, the IC50 in assay [1] was determined as 0.447 nM; in assay [2], 1.05 nM; in assay [3], 0.253 nM.

On to `CC[C@H](C)[C@@H]1NC(=O)[C@@H](NC(=O)[C@H](CO)NC(=O)[C@@H](N)CCCNC(=N)N)CSSC[C@@H](C(=O)O)NC(=O)[C@H]([C@@H](C)O)NC(=O)CNC(=O)[C@@H]2CSSC[C@@H]3NC(=O)[C@H](CCC(N)=O)NC(=O)[C@H](Cc4ccccc4)NC(=O)[C@H](C)NC(=O)[C@H]([C@@H](C)O)NC(=O)[C@H](CSSC[C@H](NC(=O)[C@H](Cc4ccccc4)NC(=O)[C@H](CO)NC(=O)[C@H](CC(C)C)NC(=O)[C@H](CCCNC(=N)N)NC(=O)[C@H](Cc4ccc(O)cc4)NC(=O)[C@H](CCCCN)NC(=O)[C@H](CCSC)NC(=O)[C@H](CO)NC(=O)[C@H](Cc4cnc[nH]4)NC(=O)[C@H](CCCCN)NC3=O)C(=O)N[C@@H](Cc3cccc4ccccc34)C(=O)N[C@@H](CCCCN)C(=O)N[C@@H]([C@@H](C)O)C(=O)N2)NC(=O)[C@H](CCCNC(=N)N)NC(=O)[C@H](CO)NC(=O)[C@H](CCCCN)NC(=O)[C@@H]2CCCN2C(=O)[C@H]([C@@H](C)CC)NC(=O)[C@H]([C@@H](C)O)NC(=O)[C@H](CC(=O)O)NC1=O`, for which the IC50 in assay [1] is greater than 3.33 nM; in assay [2] it was 8.08 nM; in assay [3], 4.72 nM.

For `CC[C@H](C)[C@@H]1NC(=O)[C@@H](NC(=O)[C@H](CO)NC(=O)[C@@H](N)CCCNC(=N)N)CSSC[C@@H](C(=O)O)NC(=O)[C@H]([C@@H](C)O)NC(=O)CNC(=O)[C@@H]2CSSC[C@@H]3NC(=O)[C@H](CCC(N)=O)NC(=O)[C@H](Cc4ccccc4)NC(=O)[C@H](C)NC(=O)[C@H]([C@@H](C)O)NC(=O)[C@H](CSSC[C@H](NC(=O)[C@H](Cc4ccccc4)NC(=O)[C@H](CO)NC(=O)[C@H](CC(C)C)NC(=O)[C@H](CCCNC(=N)N)NC(=O)[C@H](Cc4ccc(O)cc4)NC(=O)[C@H](CCCCN)NC(=O)[C@H](CCSC)NC(=O)[C@H](CO)NC(=O)[C@H](Cc4cnc[nH]4)NC(=O)[C@H](CCCCN)NC3=O)C(=O)N[C@@H](CCCNC(=N)N)C(=O)N[C@@H](CCCCN)C(=O)N[C@@H]([C@@H](C)O)C(=O)N2)NC(=O)[C@H](CCCNC(=N)N)NC(=O)[C@H](CO)NC(=O)[C@H](CCCCN)NC(=O)[C@@H]2CCCN2C(=O)[C@H](Cc2cccc3ccccc23)NC(=O)[C@H]([C@@H](C)O)NC(=O)[C@H](CC(=O)O)NC1=O`, the IC50 was greater than 3.33 nM in assay [1], 18 nM in assay [2] and 11.6 nM in assay [3].

Regarding `CC[C@H](C)[C@@H]1NC(=O)[C@@H](NC(=O)[C@H](CO)NC(=O)[C@@H](N)CCCNC(=N)N)CSSC[C@@H](C(=O)O)NC(=O)[C@H]([C@@H](C)O)NC(=O)CNC(=O)[C@@H]2CSSC[C@@H]3NC(=O)[C@H](CCC(N)=O)NC(=O)[C@H](Cc4ccccc4)NC(=O)[C@H](C)NC(=O)[C@H]([C@@H](C)O)NC(=O)[C@H](CSSC[C@H](NC(=O)[C@H](Cc4ccccc4)NC(=O)[C@H](CO)NC(=O)[C@H](CC(C)C)NC(=O)[C@H](CCCNC(=N)N)NC(=O)[C@H](Cc4ccc(O)cc4)NC(=O)[C@H](CCCCN)NC(=O)[C@H](CCCCN)NC(=O)[C@H](CO)NC(=O)[C@H](Cc4cnc[nH]4)NC(=O)[C@H](CCCCN)NC3=O)C(=O)N[C@@H](CCCNC(=N)N)C(=O)N[C@@H](CCCCN)C(=O)N[C@@H]([C@@H](C)O)C(=O)N2)NC(=O)[C@H](CCCNC(=N)N)NC(=O)[C@H](CO)NC(=O)[C@H](CCCCN)NC(=O)[C@@H]2CCCN2C(=O)[C@H]([C@@H](C)CC)NC(=O)[C@H]([C@@H](C)O)NC(=O)[C@H](CC(=O)O)NC1=O`, the IC50 in assay [1] is 0.798 nM; in assay [2], 4.82 nM; in assay [3], 3.59 nM.

As for `CC[C@H](C)[C@@H]1NC(=O)[C@@H](NC(=O)[C@H](CO)NC(=O)[C@@H](N)CCCNC(=N)N)CSSC[C@@H](C(=O)O)NC(=O)[C@H]([C@@H](C)O)NC(=O)CNC(=O)[C@@H]2CSSC[C@@H]3NC(=O)[C@H](CCC(N)=O)NC(=O)[C@H](Cc4ccccc4)NC(=O)[C@H](C)NC(=O)[C@H]([C@@H](C)O)NC(=O)[C@H](CSSC[C@H](NC(=O)[C@H](Cc4ccccc4)NC(=O)[C@H](CO)NC(=O)[C@H](CC(C)C)NC(=O)[C@H](CCCNC(=N)N)NC(=O)[C@H](Cc4ccc(O)cc4)NC(=O)[C@H](Cc4cccc5ccccc45)NC(=O)[C@H](CCSC)NC(=O)[C@H](CO)NC(=O)[C@H](Cc4cnc[nH]4)NC(=O)[C@H](CCCCN)NC3=O)C(=O)N[C@@H](CCCNC(=N)N)C(=O)N[C@@H](CCCCN)C(=O)N[C@@H]([C@@H](C)O)C(=O)N2)NC(=O)[C@H](CCCNC(=N)N)NC(=O)[C@H](CO)NC(=O)[C@H](CCCCN)NC(=O)[C@@H]2CCCN2C(=O)[C@H]([C@@H](C)CC)NC(=O)[C@H]([C@@H](C)O)NC(=O)[C@H](CC(=O)O)NC1=O`, the IC50 in assay [1] is greater than 3.33 nM; in assay [2], greater than 100 nM; in assay [3], greater than 100 nM.
